Read-outs that look alike come from different tables or passages of the source.
How the values were obtained:
MC38 colon cancer [1] = details: for Tumor cure rate: groups of 8; for Tumor inhibition rate: vs NS control group
Method: (§1) The tumor graft inhibition rate and the tumor inhibition rate of the subcutaneous colon cancer in each group were calculated. The formula is as follows: [tumor inhibition rate=(mean tumor weight in control group −mean tumor weight in experimental group)/mean tumor weight in control group×100%]. [tumor cure rate=(number of mice without tumor/total number of mice)×100%].
Mice were weighed and randomly divided into groups of 8. MC38 colon cancer cells were diluted with an IMDM basal medium and inoculated in the right axilla of the C57BL/J mice according to 5×10^5 cells/mouse, with a total amount of 100 μL/mouse, for modeling. After the tumor diameter reached 5 mm, the mice were divided into 4 groups, namely a normal saline control group (NS group), an oxaliplatin injection group (oxaliplatin group), a recombinant MBP-MUC1-N fusion protein vaccine group (vaccine group), and an oxaliplatin in combination with recombinant MBP-MUC1-N fusion protein vaccine formulation group (combination group). On day 3, day 7, day 10, day 14, and day 17 of tumor bearing, the recombinant MBP-MUC1-N fusion protein vaccine formulation was intramuscularly injected at a dose of 100 pg/mouse (diluted with NS, with a total amount of 200 μL) for immunization, and oxaliplatin was intraperitoneally injected at a dose of 3 mg/kg (diluted with 12% DMSO).

MC38 colon cancer [2] = assay: Vaccine prepared by three-step purification in treatment of MC38 colon cancer alone, compared with anti-PD-1 antibody (Example 3); type: in vivo, C57 BL/6J mice
MC38 colon cancer [3] = tested on: MC38 colon cancer
Method: Mice were weighed and randomly divided into groups of 6. MC38 colon cancer cells were diluted with an IMDM basal medium and inoculated in the right axilla of the C57BL/J mice according to 5×10^5 cells/mouse, with a total amount of 100 μL/mouse, for modeling. After the tumor diameter reached 5 mm, the mice were divided into 4 groups, namely a normal saline control group (NS group), an immune checkpoint inhibitor anti-PD-1 antibody injection group (PD-1 group), a recombinant MBP-MUC1-N fusion protein vaccine group (vaccine group), and a recombinant MBP-MUC1-N fusion protein vaccine formulation in combination with immune checkpoint inhibitor anti-PD1 antibody group (combination group). On day 3, day 7, day 10, day 14, and day 17 of tumor bearing, the recombinant MBP-MUC1-N fusion protein vaccine formulation was intramuscularly injected at a dose of 100 μg/mouse (diluted with NS, with a total amount of 200 μL) for immunization, and the immune checkpoint inhibitor anti-PD-1 antibody was intraperitoneally injected at a dose of 250 μg/mouse (diluted with NS, with a total amount of 500 tL/mouse).
as §1

| Compound | Tumor volume (MC38 colon cancer [1]; 5 days after injection) [cm^3] | Tumor volume (MC38 colon cancer [1]; 7 days after injection) [cm^3] | Survival time of the mice suffering from the cancer (MC38 colon cancer [1]; MC38 tumor-bearing mice, FIG. 3) [days] | Tumor cure rate (MC38 colon cancer [1]) [%] | Tumor inhibition rate (MC38 colon cancer [1]) [%] | Tumor volume (MC38 colon cancer [2]; 3 days after injection) | Tumor volume (MC38 colon cancer [2]; 7 days after injection) | Tumor volume (MC38 colon cancer [2]; 10 days after injection) | Tumor weight (MC38 colon cancer [2]; MC38 tumor-bearing mice, vaccine 50 μg/mouse i.m., anti-PD-1 antibody 200 μg/mouse i.p., day 3, 7, 10, 14 of tumor bearing) [g] | Tumor cure rate (MC38 colon cancer [2]; groups of 10) [%] | Tumor inhibition rate (MC38 colon cancer [2]; vs PBS control group) [%] | Tumor weight (MC38 colon cancer [3]; MC38 tumor-bearing mice, vaccine 100 μg/mouse i.m., anti-PD-1 antibody 250 μg/mouse i.p., day 3, 7, 10, 14, 17 of tumor bearing) [g] | Tumor inhibition rate (MC38 colon cancer [3]; from mean tumor weight vs NS control group) [%] | Tumor cure rate (MC38 colon cancer [3]; number of mice without tumor/total number of mice, groups of 6) [%] |
| --- | --- | --- | --- | --- | --- | --- | --- | --- | --- | --- | --- | --- | --- | --- |
| O=C1[O][Pt]2([NH][C@@H]3CCCC[C@H]3[NH]2)[O]C1=O [Oxaliplatin group, oxaliplatin] | 0.46 ± 0.12 | 0.81 ± 0.20 | 29 | 12.5 | 50 |  |  |  |  |  |  |  |  |  |
| Vaccine group: recombinant fusion protein of maltose-binding protein MBP and human mucin MUC1-N in tandem (SEQ ID NO. 3), as vaccine |  |  |  | 0 | 27 | 0.41+0.17 cm^3 | 1.11+0.83 cm^3 | 1.53+0.55 cm^3 | 1.53 ± 0.55 | 40 | 40 | 1.96 ± 0.80 | 26 | 0 |

From patent publication US20250025543A1, “DRUG FOR TREATING AND/OR PREVENTING CANCER AND USE THEREOF” (YUANBEN (ZHUHAI HENGQIN) BIOTECHNOLOGY CO., LTD., priority 2021, published 2025)
